Test results published in paper PMC8887546, “Design and Synthesis of Brain Penetrant Glycopeptide Analogues of PACAP With Neuroprotective Potential for Traumatic Brain Injury and Parkinsonism” (Frontiers in drug discovery, 2022).

Legend:
[1] = test system: C57BL/6 mice, diffuse TBI; test: Novel object recognition after TBI; assay type: in vivo, mouse; details: 10 mg/kg i.p. 30 min prior to TBI, 14 DPI
Procedure: 30 min prior to TBI or sham injury, mice were randomly assigned to a therapeutic group and received an intraperitoneal injection of 2LS80Mel (10 mg/kg) or sterile saline (0.25 ml). Groups were as follows: TBI-2LS80Mel n = 17; TBI-vehicle n = 17; sham n = 22 (vehicle n = 11, 2LS80Mel n = 11).
For injury induction 24 h post-surgery, mice were re-anesthetized with 5% isoflurane delivered for 3 min. The cap was removed from the injury-hub assembly and the dura was visually inspected through the hub to ensure it was intact with no debris. […] Injured mice were monitored for presence of a forearm fencing response and righting reflex times were recorded as indicators of injury severity ([Hosseini and Lifshitz, 2009]). […] After spontaneously righting, mice were placed in a heated recovery cage and monitored until they were ambulatory (approximately 5–15 min) before being returned to their piezoelectric sleep cage (see below). […]
Cognitive impairment was tested at 14 DPI using the novel object recognition (NOR) test as previously published ([Rowe et al., 2014b]; [Harrison et al., 2015]; [Saber et al., 2021]). […] For testing, the times spent actively investigating the novel and familiar object were quantified. […] If an animal climbed onto an object and sniffed into the air, this time was not calculated into the exploration of the novel object.

[2] = test system: Sprague Dawley rats, 6-OHDA lesion; test: Amphetamine-induced rotations, moderate 6-OHDA hemi-parkinsonian rat model (study 2); assay type: in vivo; details: more severe (40%) lesion, three injections 15 mg/kg i.p., vs vehicle
Procedure: Rats were treated with 2LS98Lac or saline (vehicle) as outlined in the Schemes in Figures 9A,B via intraperitoneal (i.p.) injection (15 mg/kg). All animals were made hemi-parkinsonian with unilateral, striatal 6-hydroxydopamine (Sigma Aldrich, St. Louis, MO) injections. After surgery, behavioral assessments were done at 2- and 4-weeks post-surgery. 24 h after the last test animals were either euthanized and whole brains were harvested for future biochemical analysis or perfused and brains collected for immunohistochemistry and stereological assessment of tyrosine hydroxylase-positive (TH+) cells remaining in the SNc. In study 1: n = 16 each group were included, and all underwent the behavioral analysis: n = 16, and for the stereology in the SNc, n = 8 each group was used. […]
In order to pharmacologically assess the degree of dopaminergic (DA) depletion in the lesioned side, animals were given amphetamine, an indirectly acting DA agonist and placed into a plexiglass cylinder (38 cm tall × 38 cm across) enclosed in an open field box ([Yue et al., 2011]). Dextro-amphetamine in sterile 0.9% saline (Sigma-Aldrich) was injected i.p. at 5 mg/kg, and rotations were recorded from above using Logitech HD web cameras connected to an Acer Aspire SWS-015 computer. An observer blinded to the groups counted rotations in both the ipsilateral and contralateral rotations for the entire 70 min period. […]

Compound | Novel object recognition (cognitive deficits) [1] | Amphetamine-induced rotations at 2 weeks post-lesion [2] | Amphetamine-induced rotations at 4 weeks post-lesion [2]
CC[C@H](C)[C@H](NC(=O)CNC(=O)[C@H](CC(=O)O)NC(=O)[C@H](CO)NC(=O)[C@@H](N)Cc1c[nH]cn1)C(=O)N[C@@H](Cc1ccccc1)C(=O)N[C@H](C(=O)N[C@@H](CC(=O)O)C(=O)N[C@@H](CO)C(=O)N[C@@H](Cc1ccc(O)cc1)C(=O)N[C@@H](CO)C(=O)N[C@@H](CCCNC(=N)N)C(=O)N[C@@H](Cc1ccc(O)cc1)C(=O)N[C@@H](CCCNC(=N)N)C(=O)N[C@@H](CCCCN)C(=O)N[C@@H](CCC(N)=O)C(=O)N[C@@H](CC(C)C)C(=O)N[C@@H](C)C(=O)N[C@H](C(=O)N[C@@H](CCCCN)C(=O)N[C@@H](CCCCN)C(=O)N[C@@H](Cc1ccc(O)cc1)C(=O)N[C@@H](CC(C)C)C(=O)N[C@@H](C)C(=O)N[C@@H](C)C(=O)N[C@H](C(=O)N[C@@H](CC(C)C)C(=O)N[C@@H](CO[C@@H]1O[C@H](CO[C@H]2O[C@H](CO)[C@H](O)[C@H](O)[C@H]2O)[C@@H](O)[C@H](O)[C@H]1O)C(N)=O)C(C)C)C(C)C)[C@@H](C)O [Compound 2LS80Mel] | no TBI-induced cognitive deficits among any group |  | 
[2H]C([2H])([2H])C([2H])(C([2H])([2H])[2H])[C@]([2H])(NC(=O)[C@H](C)NC(=O)[C@H](C)NC(=O)[C@H](CC(C)C)NC(=O)[C@H](Cc1ccc(O)cc1)NC(=O)[C@H](CCCCN)NC(=O)[C@H](CCCCN)NC(=O)[C@@]([2H])(NC(=O)[C@H](C)NC(=O)[C@H](CC(C)C)NC(=O)[C@H](CCC(N)=O)NC(=O)[C@H](CCCCN)NC(=O)[C@H](CCCNC(=N)N)NC(=O)[C@H](Cc1ccc(O)cc1)NC(=O)[C@H](CCCNC(=N)N)NC(=O)[C@H](CO)NC(=O)[C@H](Cc1ccc(O)cc1)NC(=O)[C@H](CO)NC(=O)[C@H](CC(=O)O)NC(=O)[C@@H](NC(=O)[C@H](Cc1ccccc1)NC(=O)[C@@H](NC(=O)CNC(=O)[C@H](CC(=O)O)NC(=O)[C@H](CO)NC(=O)[C@@H](N)Cc1c[nH]cn1)[C@@H](C)CC)[C@@H](C)O)C([2H])(C([2H])([2H])[2H])C([2H])([2H])[2H])C(=O)N[C@@H](CC(C)C)C(=O)N[C@@H](CO[C@@H]1O[C@H](CO)[C@@H](O[C@@H]2O[C@H](CO)[C@H](O)[C@H](O)[C@H]2O)[C@H](O)[C@H]1O)C(N)=O [Compound 2LS98Lac] |  | did not see a difference | did not see a difference
